Measured values reported in patent publication US20140017673A1, “METHOD FOR ENUMERATING EUKARYOTIC CELL MICRONUCLEI WITH AN EMPHASIS ON SIMULTANEOUSLY ACQUIRING CYTOTOXICITY AND MODE OF ACTION INFORMATION” (priority 2012, published 2014).
Where a name gives a salt, the structure may show the parent alone. Read-outs that look alike come from different tables or passages of the source.

What was measured:
[1] = test system: TK6 cells; conditions: for Avg. % EMA+ / Avg. % M / Avg. % MN / Avg. % RS / Avg. M as % G2/M: human
[2] = test system: TK6 cells; assay: Polyploidy as an aneugenic signature (flow cytometry, 96-well plate); conditions: 0.025 μg paclitaxel/ml, approximately 24 hrs

SMILES: COC(=O)Nc1nc2ccccc2[nH]1 [Carbendazim]
- Avg. % EMA+ ([1]; 0.125 μg/ml): 2.3%
- Avg. % M ([1]; 0.125 μg/ml): 1.6%
- Avg. % MN ([1]; 0.125 μg/ml): 0.8%
- Avg. % RS ([1]; 0.125 μg/ml): 96.9%
- Avg. M as % G2/M ([1]; 0.125 μg/ml): 6.1%
- Avg. % EMA+ ([1]; 0.5 μg/ml): 6.4%
- Avg. % M ([1]; 0.5 μg/ml): 1.6%
- Avg. % MN ([1]; 0.5 μg/ml): 3.8%
- Avg. % RS ([1]; 0.5 μg/ml): 71.2%
- Avg. M as % G2/M ([1]; 0.5 μg/ml): 10.3%
- Avg. % EMA+ ([1]; 1 μg/ml): 10.0%
- Avg. % M ([1]; 1 μg/ml): 5.6%
- Avg. % MN ([1]; 1 μg/ml): 14.7%
- Avg. % RS ([1]; 1 μg/ml): 49.7%
- Avg. M as % G2/M ([1]; 1 μg/ml): 24.9%
- Avg. % EMA+ ([1]; 2 μg/ml): 12.0%
- Avg. % M ([1]; 2 μg/ml): 5.4%
- Avg. % MN ([1]; 2 μg/ml): 22.3%
- Avg. % RS ([1]; 2 μg/ml): 43.3%
- Avg. M as % G2/M ([1]; 2 μg/ml): 18.5%

SMILES: COc1cc2c(c(OC)c1OC)-c1ccc(OC)c(=O)cc1[C@@H](NC(C)=O)CC2 [Colchicine]
- cytotoxicity (dose-dependent reductions to RS), FIG. 3 [1]: cytotoxic
- genotoxicity (increased MN observed), FIG. 3 dose-response [1]: genotoxic

SMILES: COc1cc([C@@H]2c3cc4c(cc3[C@@H](O[C@@H]3O[C@@H]5CO[C@@H](C)O[C@H]5[C@H](O)[C@H]3O)[C@H]3COC(=O)[C@H]23)OCO4)cc(OC)c1O [Etoposide]
- Avg. % EMA+ ([1]; 0.005 μg/ml): 2.3%
- Avg. % M ([1]; 0.005 μg/ml): 1.6%
- Avg. % RS ([1]; 0.005 μg/ml): 83.3%
- Avg. M as % G2/M ([1]; 0.005 μg/ml): 5.7%
- Avg. % EMA+ ([1]; 0.01 μg/ml): 3.7%
- Avg. % M ([1]; 0.01 μg/ml): 1.4%
- Avg. % RS ([1]; 0.01 μg/ml): 69.6%
- Avg. M as % G2/M ([1]; 0.01 μg/ml): 5.2%
- Avg. % EMA+ ([1]; 0.02 μg/ml): 5.3%
- Avg. % M ([1]; 0.02 μg/ml): 1.2%
- Avg. % RS ([1]; 0.02 μg/ml): 52.6%
- Avg. M as % G2/M ([1]; 0.02 μg/ml): 3.8%

SMILES: COC1=CC(=O)C[C@@H](C)[C@]12Oc1c(Cl)c(OC)cc(OC)c1C2=O [Griseofulvin]
- Avg. % EMA+ ([1]; 0.375 μg/ml): 3.0%
- Avg. % M ([1]; 0.375 μg/ml): 1.9%
- Avg. % RS ([1]; 0.375 μg/ml): 96.6%
- Avg. M as % G2/M ([1]; 0.375 μg/ml): 6.0%
- Avg. % EMA+ ([1]; 0.75 μg/ml): 2.6%
- Avg. % M ([1]; 0.75 μg/ml): 1.8%
- Avg. % RS ([1]; 0.75 μg/ml): 99.5%
- Avg. M as % G2/M ([1]; 0.75 μg/ml): 5.8%
- Avg. % EMA+ ([1]; 3 μg/ml): 8.2%
- Avg. % M ([1]; 3 μg/ml): 3.0%
- Avg. % RS ([1]; 3 μg/ml): 64.9%
- Avg. M as % G2/M ([1]; 3 μg/ml): 19.4%
- Avg. % EMA+ ([1]; 6 μg/ml): 13.5%
- Avg. % M ([1]; 6 μg/ml): 5.8%
- Avg. % RS ([1]; 6 μg/ml): 46.6%
- Avg. M as % G2/M ([1]; 6 μg/ml): 26.4%

SMILES: NC(=O)NO [HU, Hydroxyurea]
- Avg. % EMA+ ([1]; 0.5 μg/ml): 2.4%
- Avg. % M ([1]; 0.5 μg/ml): 1.6%
- Avg. % MN ([1]; 0.5 μg/ml): 0.4%
- Avg. % RS ([1]; 0.5 μg/ml): 100.9%
- Avg. M as % G2/M ([1]; 0.5 μg/ml): 5.4%
- Avg. % EMA+ ([1]; 0.9 μg/ml): 2.3%
- Avg. % M ([1]; 0.9 μg/ml): 1.6%
- Avg. % MN ([1]; 0.9 μg/ml): 0.5%
- Avg. % RS ([1]; 0.9 μg/ml): 97.1%
- Avg. M as % G2/M ([1]; 0.9 μg/ml): 5.9%
- Avg. % EMA+ ([1]; 3.8 μg/ml): 5.8%
- Avg. % M ([1]; 3.8 μg/ml): 1.7%
- Avg. % MN ([1]; 3.8 μg/ml): 0.9%
- Avg. % RS ([1]; 3.8 μg/ml): 65.7%
- Avg. M as % G2/M ([1]; 3.8 μg/ml): 4.7%
- Avg. % EMA+ ([1]; 7.5 μg/ml): 13.7%
- Avg. % M ([1]; 7.5 μg/ml): 1.0%
- Avg. % MN ([1]; 7.5 μg/ml): 1.9%
- Avg. % RS ([1]; 7.5 μg/ml): 44.3%
- Avg. M as % G2/M ([1]; 7.5 μg/ml): 3.9%

SMILES: CC(=O)O[C@H]1C(=O)[C@@]2(C)[C@H]([C@H](OC(=O)c3ccccc3)[C@]3(O)C[C@H](OC(=O)[C@H](O)[C@@H](NC(=O)c4ccccc4)c4ccccc4)C(C)=C1C3(C)C)[C@]1(OC(C)=O)CO[C@@H]1C[C@@H]2O [Paclitaxel]
- Avg. % EMA+ ([1]; 1.6 μg/ml): 3.7%
- Avg. % M ([1]; 1.6 μg/ml): 1.7%
- Avg. % MN ([1]; 1.6 μg/ml): 1.5%
- Avg. M as % G2/M ([1]; 1.6 μg/ml): 7.1%
- Avg. % EMA+ ([1]; 2.4 μg/ml): 7.3%
- Avg. % M ([1]; 2.4 μg/ml): 2.2%
- Avg. % MN ([1]; 2.4 μg/ml): 4.4%
- Avg. M as % G2/M ([1]; 2.4 μg/ml): 9.7%
- Avg. % EMA+ ([1]; 3.3 μg/ml): 10.0%
- Avg. % M ([1]; 3.3 μg/ml): 3.4%
- Avg. % MN ([1]; 3.3 μg/ml): 9.2%
- Avg. M as % G2/M ([1]; 3.3 μg/ml): 12.2%
- Avg. % EMA+ ([1]; 4.9 μg/ml): 12.3%
- Avg. % M ([1]; 4.9 μg/ml): 4.4%
- Avg. % MN ([1]; 4.9 μg/ml): 12.5%
- Avg. M as % G2/M ([1]; 4.9 μg/ml): 11.3%
- Avg. % EMA+ ([1]; 6.5 μg/ml): 13.2%
- Avg. % M ([1]; 6.5 μg/ml): 4.6%
- Avg. % MN ([1]; 6.5 μg/ml): 15.8%
- Avg. M as % G2/M ([1]; 6.5 μg/ml): 10.2%
- induction of polyploid nuclei (8n), FIG. 6 [2]: robust induction

SMILES: CC[C@]1(O)C[C@@H]2CN(CCc3c([nH]c4ccccc34)[C@@](C(=O)OC)(c3cc4c(cc3OC)N(C)[C@H]3[C@@](O)(C(=O)OC)[C@H](OC(C)=O)[C@]5(CC)C=CCN6CC[C@]43[C@@H]65)C2)C1 [Vinblastine sulfate]
- Avg. % EMA+ ([1]; 0.1 μg/ml): 2.0%
- Avg. % M ([1]; 0.1 μg/ml): 1.8%
- Avg. % MN ([1]; 0.1 μg/ml): 0.7%
- Avg. % RS ([1]; 0.1 μg/ml): 88.0%
- Avg. M as % G2/M ([1]; 0.1 μg/ml): 8.6%
- Avg. % EMA+ ([1]; 0.2 μg/ml): 2.7%
- Avg. % M ([1]; 0.2 μg/ml): 1.5%
- Avg. % MN ([1]; 0.2 μg/ml): 1.6%
- Avg. % RS ([1]; 0.2 μg/ml): 79.6%
- Avg. M as % G2/M ([1]; 0.2 μg/ml): 9.0%
- Avg. % EMA+ ([1]; 0.4 μg/ml): 4.0%
- Avg. % M ([1]; 0.4 μg/ml): 2.7%
- Avg. % MN ([1]; 0.4 μg/ml): 3.3%
- Avg. % RS ([1]; 0.4 μg/ml): 70.6%
- Avg. M as % G2/M ([1]; 0.4 μg/ml): 17.1%
- Avg. % EMA+ ([1]; 0.8 μg/ml): 5.8%
- Avg. % M ([1]; 0.8 μg/ml): 7.2%
- Avg. % MN ([1]; 0.8 μg/ml): 7.5%
- Avg. % RS ([1]; 0.8 μg/ml): 48.0%
- Avg. M as % G2/M ([1]; 0.8 μg/ml): 32.0%
- Avg. % EMA+ ([1]; 1.6 μg/ml): 8.8%
- Avg. % M ([1]; 1.6 μg/ml): 4.4%
- Avg. % MN ([1]; 1.6 μg/ml): 12.6%
- Avg. % RS ([1]; 1.6 μg/ml): 37.6%
- Avg. M as % G2/M ([1]; 1.6 μg/ml): 14.1%

SMILES: CC[C@]1(O)C[C@H]2CN(CCc3c([nH]c4ccccc34)[C@@](C(=O)OC)(c3cc4c(cc3OC)N(C=O)[C@H]3[C@@](O)(C(=O)OC)[C@H](OC(C)=O)[C@]5(CC)C=CCN6CC[C@]43[C@@H]65)C2)C1 [Vincristine sulfate]
- Avg. % EMA+ ([1]; 0.125 μg/ml): 3.3%
- Avg. % M ([1]; 0.125 μg/ml): 1.9%
- Avg. % MN ([1]; 0.125 μg/ml): 0.6%
- Avg. % RS ([1]; 0.125 μg/ml): 91.9%
- Avg. M as % G2/M ([1]; 0.125 μg/ml): 7.1%
- Avg. % EMA+ ([1]; 0.5 μg/ml): 5.1%
- Avg. % M ([1]; 0.5 μg/ml): 2.1%
- Avg. % MN ([1]; 0.5 μg/ml): 2.7%
- Avg. % RS ([1]; 0.5 μg/ml): 72.1%
- Avg. M as % G2/M ([1]; 0.5 μg/ml): 8.4%
- Avg. % EMA+ ([1]; 1 μg/ml): 8.2%
- Avg. % M ([1]; 1 μg/ml): 3.4%
- Avg. % MN ([1]; 1 μg/ml): 7.9%
- Avg. % RS ([1]; 1 μg/ml): 53.1%
- Avg. M as % G2/M ([1]; 1 μg/ml): 13.5%
